Reference: US11723920B2, “Method for treating cancer with a nanoformulation” (Imam Abdulrahman Bin Faisal University, priority 2019, dated 2023)

Test system: human mammary adenocarcinoma cell line, MCF-7
Assay: Cell viability MTT assay on MCF-7 cells
Type: cell-based
Conditions: MCF-7, 48 h
Description: Cells were maintained in DMEM (Dulbecco's Modified Eagle Medium) (Gibco, life technologies) supplemented with 10% heat inactivated fetal bovine serum (HI-FBS) (Gibco, life technology), 1% Penicillin Streptomycin (100×— Gibco, life technology), and 1% MEM NEAA (MEM non-essential amino acids) (100×— Gibco, life technology). Cells were kept in a humidified incubator at 37° C. with 5% CO2. For the experimental setup, MCF-7 cells were seeded on a 96-well plate at a density of 20,000 cells/well. On the next day, cells were shifted to the starve media (0.5% HI-FBS containing media) for 24 h before treatment.
For groups B, C, E, and F, treatment concentrations were as follows: 0.025, 0.05, 0.1, and 0.5 mg/mL. […] Therefore, treatment concentrations for group A were as follows: 0.0084, 0.0168, 0.0336, and 0.168 mg/mL. Treatment concentrations used in this experiment for group D were as follows: 0.001125, 0.00225, 0.0045, 0.0225 mg/mL.
The viability of cells was tested using 3-(4,5-dimethylthiazol-2-yl)-2,5-diphenyltetrazolium bromide (MTT) assay. It is based on the ability to reduce MTT relative to formazan crystals. […] The change in color intensity was measured at 570 nm wavelength using SYNERGY-neo2 BioTek ELISA reader. […] The reading of each triplicate was averaged and subtracted from the averaged MTT background control reading. […]

N.N.[Cl][Pt][Cl] [cisplatin]
effect on cell viability (in words): significantly reduced cell viability
